For one experiment, the target named is CDK2/Cyclin E1 (Homo sapiens, UniProt P24941). The experiment is described as follows: ADP-Glo Luminescent Kinase Assay (CDK2/E1-37C). The conditions noted are these: 0.18 nM CDK2/Cyclin E1, 100 μM ATP, Histone H1, 37° C.; read-out: ADPGLO (CDK2/E1-37C): IC50. It counts as biochemical. The protocol:
Inhibition of CDK2/Cyclin E1 activity by the presence of small molecules was evaluated using ADP-Glo Luminescent Kinase Assay (Promega). Activated CDK2/Cyclin E1 was incubated with its substrate Histone H1 (SignalChem H10-54N) in the kinase reaction buffer (100 μM ATP, 50 mM HEPES pH 7.5, 10 mM MgCl2, 1 mM EDTA, 2 mM DTT, 0.01% Brij35, 0.5 mg/mL BSA). Luminescence was recorded with an Envision plate reader (PerkinElmer).
Dose titrations of inhibitors in 100% DMSO were combined with 0.36 nM CDK2/Cyclin E1 in reaction buffer. The mixtures were incubated for 60 minutes at 37° C. before the addition of ATP and Histone H1 substrate to initiate the kinase reaction. The final conditions were 0.18 nM CDK2/Cyclin E1, 100 μM ATP, and […] Histone H1. The reactions were incubated at 37° C. for 90 minutes before being stopped with the addition of ADP-Glo reagent. This mixture was incubated at room temperature for 60 minutes before Kinase Detection Solution is added to generate luminescence. The stopped reactions were analyzed on an Envision plate reader. The conversion ratios were normalized to yield % activity, plotted against compound concentration, and fit to a four-parameter equation to determine the IC50 for each compound.
(ADP-Glo first removes unused ATP, then detects ADP through luciferase.)

For another experiment, the system named is Kuramochi cells RB-WT. The experiment is described as follows: IncuCyte Kuramochi cell proliferation assay, RB-WT. The conditions noted are these: 72 hours, cell count. It counts as cell-based. The protocol: (§1) IncuCyte® assay was used to measure the effect of disclosed compounds on cell proliferation. Fluorescent microscopy images of cells were taken immediately after compound treatment and 72 hours later. Image analysis software was used to obtain cell counts as a function of compound concentration. Kuramochi cells labeled with mApple-H2B were seeded on 384-well assay-ready plates. Plates were placed in an IncuCyte® (Sartorius) and scanned at 0 and 72 hours. IncuCyte® software was used to count the number of fluorescent nuclei in each well. The fold change in cell count from 0 to 72 hours in wells treated with increasing compounds concentrations (10 pts, 1/2 log dilution, 20 µM top concentration) was normalized to DMSO control wells. The normalized cell counts were fit with dose response curves and a GI50 was calculated.

The test system of a further experiment is Kuramochi cells RB-KO. The experiment is described as follows: IncuCyte Kuramochi cell proliferation assay, RB-KO. The note with it: 72 hours, cell count, batch mean. It counts as cell-based. The protocol:
as §1

The structures appear in SMILES notation.

Regarding `O=C(O)c1ccccc1Cn1cc(C(=O)N2C[C@@H](COCc3cccc(C4CCC(C(F)(F)F)CC4)c3F)C3(C2)CN(C(=O)C2(C(F)(F)F)CC2)C3)cn1` (stereo in doubt) [Compound I-115, 2-((4-(8-(((2-fluoro-3-(4-(trifluoromethyl)cyclohexyl)benzyl)oxy)methyl)-2-(1-(trifluoromethyl)cyclopropane-1-carbonyl)-2,6-diazaspiro[3.4]octane-6-carbonyl)-1H-pyrazol-1-yl)methyl)benzoic acid], the results for the IC50 on CDK2/Cyclin E1, with Kuramochi cells RB-WT and in the experiment on Kuramochi cells RB-KO were at most 500 nM, above 10 µM and above 10 µM, respectively.
As for `CS(=O)(=O)NC(=O)c1c(COC[C@@H]2CN(C(=O)c3cnn(Cc4ccc(C(F)(F)F)cc4)c3)CC23CN(C(=O)C2(C(F)(F)F)CC2)C3)cccc1C1CCC(C(F)(F)F)CC1` (stereo partly drawn) [Compound I-68], the IC50 at CDK2/Cyclin E1 was 500 to 5000 nM; in the experiment on Kuramochi cells RB-WT, above 10 µM; with Kuramochi cells RB-KO, above 10 µM.
`O=C(c1cnn(Cc2ccc(C(F)(F)F)cc2)c1)N1C[C@@H](COCc2cccc(C3CCC(C(F)(F)F)CC3)c2-c2nn[nH]n2)C2(C1)CN(C(=O)C1(C(F)(F)F)CC1)C2` (stereo partly drawn) [Compound I-69]: the IC50 is at most 500 nM at CDK2/Cyclin E1, above 10 µM in the experiment with Kuramochi cells RB-WT and above 10 µM with Kuramochi cells RB-KO.
As to `O=C(O)c1c(COC[C@@H]2CN(C(=O)c3cnn(Cc4ccc(C(F)(F)F)cc4)c3)CC23CN(C(=O)C2(C(F)(F)F)CC2)C3)cccc1N1CCC(C(F)(F)F)CC1` [Compound I-72], the IC50 at CDK2/Cyclin E1 was 500 to 5000 nM; with Kuramochi cells RB-WT it was above 10 µM; with Kuramochi cells RB-KO, above 10 µM.
`O=C(O)c1c(COC[C@@H]2CN(C(=O)c3c[nH]nc3Cc3ccccc3)CC23CN(C(=O)C2(C(F)(F)F)CC2)C3)cccc1C1CCC(C(F)(F)F)CC1` (stereo partly drawn) [Compound I-73]: the IC50 on CDK2/Cyclin E1 was 500 to 5000 nM; in the experiment on Kuramochi cells RB-WT, above 10 µM; in the experiment with Kuramochi cells RB-KO, above 10 µM.
For the compound `O=C(O)c1c(COC[C@@H]2CN(C(=O)c3cnn(Cc4ccc(F)cc4C(F)(F)F)c3)CC23CN(C(=O)C2(C(F)(F)F)CC2)C3)cccc1C1CCC(C(F)(F)F)CC1` (stereo partly drawn) [Compound I-76], the results for the IC50 on CDK2/Cyclin E1, in the experiment on Kuramochi cells RB-WT and in the experiment on Kuramochi cells RB-KO were at most 500 nM, 5 to 10 µM and above 10 µM, respectively.
The like results for `C[C@@H](c1ccc(F)cc1)n1cc(C(=O)N2CC(COCc3cccc(C4CCC(C(F)(F)F)CC4)c3C(=O)O)C3(C2)CN(C(=O)C2(C(F)(F)F)CC2)C3)cn1` (stereo partly drawn) [Compound I-77] were, in that order, 500 to 5000 nM, above 10 µM and above 10 µM.
`C[C@H](c1ccc(F)cc1)n1cc(C(=O)N2CC(COCc3cccc(C4CCC(C(F)(F)F)CC4)c3C(=O)O)C3(C2)CN(C(=O)C2(C(F)(F)F)CC2)C3)cn1` (stereo partly drawn) [Compound I-78]: the IC50 at CDK2/Cyclin E1 is 500 to 5000 nM; in the experiment on Kuramochi cells RB-WT, above 10 µM; with Kuramochi cells RB-KO, above 10 µM.
In the case of `CC1(C)C[C@@H]1C(=O)N1CC2(CN(C(=O)c3cnn(Cc4ccc(F)cc4)c3)CC2COCc2cccc(C3CCC(C(F)(F)F)CC3)c2C(=O)NS(C)(=O)=O)C1` (stereo partly drawn) [Compound I-86, 2-(((2-((S)-2,2-dimethylcyclopropane-1-carbonyl)-6-(1-(4-fluorobenzyl)-1H-pyrazole-4-carbonyl)-2,6-diazaspiro[3.4]octan-8-yl)methoxy)methyl)-N-(methylsulfonyl)-6-(4-(trifluoromethyl)cyclohexyl)benzamide], the IC50 on CDK2/Cyclin E1 was at most 500 nM; in the experiment with Kuramochi cells RB-WT, 0.5 to 5 µM; in the experiment on Kuramochi cells RB-KO, 0.5 to 5 µM.
On to `CC1(C)C[C@@H]1C(=O)N1CC2(CN(C(=O)c3cnn(Cc4ccc(F)cc4)c3)CC2COCc2cccc(C3CCC4(CCC4)CC3)c2C(=O)O)C1` (stereo partly drawn) [Compound I-88, 2-(((2-((S)-2,2-dimethylcyclopropane-1-carbonyl)-6-(1-(4-fluorobenzyl)-1H-pyrazole-4-carbonyl)-2,6-diazaspiro[3.4]octan-8-yl)methoxy)methyl)-6-(spiro[3.5]nonan-7-yl)benzoic acid], for which the IC50 at CDK2/Cyclin E1 was at most 500 nM; in the experiment with Kuramochi cells RB-WT, 0.5 to 5 µM; with Kuramochi cells RB-KO it was above 10 µM.
In the case of `CC1(C(=O)N2CC3(CN(C(=O)c4cnn(Cc5ccc(F)cc5)c4)C[C@H]3COCc3cccc(C4CCC(C(F)(F)F)CC4)c3C(=O)O)C2)CCO1` (stereo partly drawn) [Compound I-93, 2-((((8S)-6-(1-(4-fluorobenzyl)-1H-pyrazole-4-carbonyl)-2-(2-methyloxetane-2-carbonyl)-2,6-diazaspiro[3.4]octan-8-yl)methoxy)methyl)-6-(4-(trifluoromethyl)cyclohexyl)benzoic acid], the IC50 is 500 to 5000 nM on CDK2/Cyclin E1, above 10 µM in the experiment on Kuramochi cells RB-WT and above 10 µM with Kuramochi cells RB-KO.
As for `CC(C)(C(=O)N1CC2(CN(C(=O)c3cnn(Cc4ccc(F)cc4)c3)C[C@H]2COCc2cccc(C3CCC(C(F)(F)F)CC3)c2C(=O)O)C1)C(F)(F)F` (stereo partly drawn) [Compound I-94, (S)-2-(((6-(1-(4-fluorobenzyl)-1H-pyrazole-4-carbonyl)-2-(3,3,3-trifluoro-2,2-dimethylpropanoyl)-2,6-diazaspiro[3.4]octan-8-yl)methoxy)methyl)-6-(4-(trifluoromethyl)cyclohexyl)benzoic acid], the IC50 was at most 500 nM on CDK2/Cyclin E1, 0.5 to 5 µM with Kuramochi cells RB-WT and above 10 µM with Kuramochi cells RB-KO.
`O=C(O)c1c(COC[C@@H]2CN(C(=O)c3cnn(Cc4ccc(F)cc4)c3)CC23CN(C(=O)C2(C(F)(F)F)CCC2)C3)cccc1C1CCC(C(F)(F)F)CC1` (stereo partly drawn) [Compound I-95, (S)-2-(((6-(1-(4-fluorobenzyl)-1H-pyrazole-4-carbonyl)-2-(1-(trifluoromethyl)cyclobutanecarbonyl)-2,6-diazaspiro[3.4]octan-8-yl)methoxy)methyl)-6-(4-(trifluoromethyl)cyclohexyl)benzoic acid]: the IC50 on CDK2/Cyclin E1 is at most 500 nM; with Kuramochi cells RB-WT, 0.5 to 5 µM; in the experiment on Kuramochi cells RB-KO, above 10 µM.
Turning to `O=C(O)c1c(COC[C@@H]2CN(C(=O)c3cnn(Cc4ccc(F)cc4)c3)CC23CN(C(=O)C2CCO2)C3)cccc1C1CCC(C(F)(F)F)CC1` (stereo partly drawn) [Compound I-96], the IC50 is 500 to 5000 nM at CDK2/Cyclin E1, above 10 µM in the experiment with Kuramochi cells RB-WT and above 10 µM in the experiment with Kuramochi cells RB-KO.
As for `CC(C(=O)N1CC2(CN(C(=O)c3cnn(Cc4ccc(F)cc4)c3)C[C@H]2COCc2cccc(C3CCC(C(F)(F)F)CC3)c2C(=O)O)C1)C(F)(F)F` (stereo partly drawn) [Compound I-97, 2-((((8S)-6-(1-(4-fluorobenzyl)-1H-pyrazole-4-carbonyl)-2-(3,3,3-trifluoro-2-methylpropanoyl)-2,6-diazaspiro[3.4]octan-8-yl)methoxy)methyl)-6-(4-(trifluoromethyl)cyclohexyl)benzoic acid], the IC50 was at most 500 nM on CDK2/Cyclin E1, 5 to 10 µM with Kuramochi cells RB-WT and above 10 µM in the experiment with Kuramochi cells RB-KO.
As for `O=C(O)c1c(COC[C@@H]2CN(C(=O)c3cnn(Cc4ccc(F)cc4)c3)CC23CN(C(=O)CC2(C(F)(F)F)CC2)C3)cccc1C1CCC(C(F)(F)F)CC1` (stereo partly drawn) [Compound I-98], the figures for the IC50 at CDK2/Cyclin E1, in the experiment on Kuramochi cells RB-WT and with Kuramochi cells RB-KO were 500 to 5000 nM, above 10 µM and above 10 µM, respectively.
For `O=C(O)c1c(COC[C@@H]2CN(C(=O)c3cnn(Cc4ccc(F)cc4)c3)CC23CN(C(=O)C2COC2)C3)cccc1C1CCC(C(F)(F)F)CC1` (stereo partly drawn) [Compound I-99], the values for the IC50 on CDK2/Cyclin E1, in the experiment with Kuramochi cells RB-WT and in the experiment on Kuramochi cells RB-KO were above 10000 nM, above 10 µM and above 10 µM, respectively.
For the compound `CC(C(=O)N1CC2(CN(C(=O)c3cnn(Cc4ccc(F)cc4)c3)C[C@H]2COCc2cccc(C3CCC(C(F)(F)F)CC3)c2C(=O)O)C1)(C(F)(F)F)C(F)(F)F` (stereo partly drawn) [Compound I-100, (S)-2-(((6-(1-(4-fluorobenzyl)-1H-pyrazole-4-carbonyl)-2-(3,3,3-trifluoro-2-methyl-2-(trifluoromethyl)propanoyl)-2,6-diazaspiro[3.4]octan-8-yl)methoxy)methyl)-6-(4-(trifluoromethyl)cyclohexyl)benzoic acid], the IC50 on CDK2/Cyclin E1 is at most 500 nM; with Kuramochi cells RB-WT, above 10 µM; in the experiment on Kuramochi cells RB-KO, above 10 µM.
`CC(C)(C(=O)N1CC2(CN(C(=O)c3cnn(Cc4ccc(F)cc4)c3)C[C@H]2COCc2cccc(C3CCC(F)(F)CC3)c2C(=O)O)C1)C(F)(F)F` [Compound I-101, (S)-2-(4,4-difluorocyclohexyl)-6-(((6-(1-(4-fluorobenzyl)-1H-pyrazole-4-carbonyl)-2-(3,3,3-trifluoro-2,2-dimethylpropanoyl)-2,6-diazaspiro[3.4]octan-8-yl)methoxy)methyl)benzoic acid]: the IC50 was at most 500 nM at CDK2/Cyclin E1, 0.5 to 5 µM with Kuramochi cells RB-WT and above 10 µM with Kuramochi cells RB-KO.

The values are drawn from patent US20260034123A1 (Cedilla Therapeutics, Inc., priority 2022, published 2026).
